# Measurements taken from ChEMBL document CHEMBL4610106, “Identification of the Clinical Development Candidate MRTX849, a Covalent KRASG12C Inhibitor for the Treatment of Cancer” (J Med Chem, 2020).
# Key:
# [1] = Drug metabolism in mouse hepatocytes assessed as peak area for metabolite formed due to biotransformation (dealkylation; glucuronide; GSH) at 10 uM incubated for 2 hrs by LC-MS analysis; assay type: ADME, cell-based, Hepatocyte
# [2] = Drug metabolism in mouse hepatocytes assessed as peak area for metabolite formed due to biotransformation (glucuronide; GSH) at 10 uM incubated for 2 hrs by LC-MS analysis; assay type: ADME, cell-based, Hepatocyte
# [3] = Drug metabolism in mouse hepatocytes assessed as peak area for metabolite formed due to biotransformation (sulfate) at 10 uM incubated for 2 hrs by LC-MS analysis; assay type: ADME, cell-based, Hepatocyte
# [4] = Drug metabolism in mouse hepatocytes assessed as peak area for metabolite formed due to biotransformation (dealkylation; GSH) at 10 uM incubated for 2 hrs by LC-MS analysis; assay type: ADME, cell-based, Hepatocyte
# [5] = Drug metabolism in mouse hepatocytes assessed as peak area for metabolite formed due to biotransformation ( GSH) at 10 uM incubated for 2 hrs by LC-MS analysis; assay type: ADME, cell-based, Hepatocyte
# [6] = Drug metabolism in mouse hepatocytes assessed as peak area for metabolite formed due to biotransformation (dealkylation; glucuronide) at 10 uM incubated for 2 hrs by LC-MS analysis; assay type: ADME, cell-based, Hepatocyte
# [7] = Drug metabolism in mouse hepatocytes assessed as peak area for metabolite formed due to biotransformation (glucuronide) at 10 uM incubated for 2 hrs by LC-MS analysis; assay type: ADME, cell-based, Hepatocyte
# [8] = Clearance in CD1 mouse at 3 mg/kg, iv; assay type: ADME, organism-based; details: in vivo
# [9] = Half life in CD1 mouse at 3 mg/kg, iv; assay type: ADME, organism-based; details: in vivo
# [10] = Volume of distribution at steady state in CD1 mouse at 3 mg/kg, iv; assay type: ADME, organism-based; details: in vivo, read-out: Vdss
# [11] = Protein binding in mouse plasma; assay type: ADME, cell-free; details: read-out: PPB (converted)
# [12] = Solubility in FaSSIF at pH 6.5; assay type: physicochemical
# [13] = Apparent permeability in pig LLC-PK1 cells; assay type: ADME, cell-based, Sus scrofa; details: read-out: permeability
# [14] = Cmax in CD1 mouse at 30 mg/kg, po; assay type: ADME, organism-based; set-up: dose 30 mg/kg, route oral; details: in vivo
# [15] = Tmax in CD1 mouse at 30 mg/kg, po; assay type: ADME, organism-based; details: in vivo
# [16] = AUC (infinity) in CD1 mouse at 30 mg/kg, po; assay type: ADME, organism-based; set-up: dose 30 mg/kg, time infinity, route oral; details: in vivo
# [17] = AUC (infinity) in beagle dog at 30 mg/kg, po; assay type: ADME, organism-based, Canis lupus familiaris; set-up: dose 30 mg/kg, route oral, time infinity; details: in vivo
# [18] = Tmax in beagle dog at 30 mg/kg, po; assay type: ADME, organism-based, Canis lupus familiaris; details: in vivo
# [19] = Cmax in beagle dog at 30 mg/kg, po; assay type: ADME, organism-based, Canis lupus familiaris; set-up: dose 30 mg/kg, route oral; details: in vivo
# [20] = Half life in beagle dog at 3 mg/kg, iv; assay type: ADME, organism-based, Canis lupus familiaris; details: in vivo
# [21] = Clearance in beagle dog at 3 mg/kg, iv; assay type: ADME, organism-based, Canis lupus familiaris; details: in vivo
# [22] = Volume of distribution at steady state in beagle dog at 3 mg/kg, iv; assay type: ADME, organism-based, Canis lupus familiaris; details: in vivo, read-out: Vdss
# [23] = Half life in mouse whole blood at 5 uM by LC-MS/MS analysis; assay type: ADME, tissue-based
# [24] = Half life in dog whole blood at 5 uM by LC-MS/MS analysis; assay type: ADME, tissue-based, Canis lupus familiaris
# [25] = Half life in human whole blood at 5 uM by LC-MS/MS analysis; assay type: ADME, tissue-based
# [26] = Protein binding in human plasma; assay type: ADME, cell-free; details: read-out: PPB (converted)
# [27] = Half life in rat at 3 mg/kg, iv; assay type: ADME, organism-based; details: in vivo
# [28] = Volume of distribution at steady state in rat at 3 mg/kg, iv; assay type: ADME, organism-based; details: in vivo
# [29] = Cmax in rat at 30 mg/kg, po; assay type: ADME, organism-based; set-up: dose 30 mg/kg, route oral; details: in vivo
# [30] = Tmax in rat at 30 mg/kg, po; assay type: ADME, organism-based; details: in vivo
# [31] = AUC (infinity) in rat at 30 mg/kg, po; assay type: ADME, organism-based; set-up: dose 30 mg/kg, time infinity, route oral; details: in vivo
# [32] = Toxicity in athymic nude-Foxn1nu mouse xenografted with human MIAPaCa2 cells assessed as induction of body weight loss at 10 to 100 mg/kg, po dosed daily via gavage for 16 days; assay type: organism-based, MIA PaCa-2; details: in vivo, 384 h
# [33] = system: MIA PaCa-2; assay: Antitumor activity against human MIAPaCa2 cells xenografted in athymic nude-Foxn1nu mouse assessed as maximally efficacious dose for induction of tumor regression at 10 to 100 mg/kg, po dosed daily via gavage for 16 days; assay type: functional
# [34] = in vivo; details: beagle, dog, po, 30 mg/kg
# [35] = in vivo; details: rat, po, 30 mg/kg
structure (smiles),measurement,setting,value
C=C(F)C(=O)N1CCN(c2nc(OC[C@@H]3CCCN3C)nc3c2CCN(c2cccc4cccc(Cl)c24)C3)C[C@@H]1CC#N [ADAGRASIB],Drug metabolism,[1],Metabolite_Notdetected
same,Drug metabolism,[2],Metabolite_Notdetected
same,Drug metabolism,[3],Metabolite_Notdetected
same,Drug metabolism,[4],Metabolite_Notdetected
same,Drug metabolism,[5],Metabolite_Notdetected
same,Drug metabolism,[6],Metabolite_Notdetected
same,Drug metabolism,[7],Metabolite_Notdetected
same,clearance,[8],19.9 mL/min/kg
same,half-life,[9],1.51 h
same,Vd,[10],2.02 L/kg
same,fraction unbound,[11],0.01
same,solubility,[12],568 µg/mL
same,Papp,[13],4.7 ×10⁻⁶ cm/s
same,Cmax,[14],2410 ng/mL
same,Tmax,[15],1 h
same,AUC(0-inf),[16],15900 ng·h/mL
same,AUC(0-inf),[17],4470 ng·h/mL
same,Tmax,[18],4 h
same,Cmax,[19],252 ng/mL
same,half-life,[20],7.56 h
same,clearance,[21],29.6 mL/min/kg
same,Vd,[22],17.4 L/kg
same,half-life at 5 µM,[23],> 50 h
same,half-life at 5 µM,[24],> 50 h
same,half-life at 5 µM,[25],> 50 h
same,fraction unbound,[26],0.017
same,t1/2,[27],2.57 h
same,Vdss,[28],20.7 L/kg
same,Cmax,[29],209 ng/mL
same,Tmax,[30],2.67 h
same,AUC(0-inf),[31],2670 ng·h/mL
same,Activity,[32],Non-Toxic
same,Activity,[33],30 to 100 mg/kg
same,bioavailability,[34],25.9%
same,bioavailability,[35],29.7%
